Laboratory results taken from patent US6686350B1, “Cell adhesion inhibitors” (Biogen, Inc., priority 1996, dated 2004).

target: T1, VLA-4 (Homo sapiens, UniProt P05556+P13612); experiment: VLA-4 direct binding assay (VCAM-IgG alkaline phosphatase conjugate binding to Jurkat cells); conditions: Table 1, Structure-Activity; assay and unit inferred; read-out: Act
T1 construct: endogenous in cells; host or cells: Jurkat cells
Excerpt: A direct binding assay may also be employed to quantitate the inhibitory activity of the compounds of this invention. (“DBA”) In direct binding assays, for example, a VCAM-IgG fusion protein containing the first two immunoglobulin domains of VCAM (D1D2) attached above the hinge region of an IgG1 molecule (“VCAM 2D-IgG”), is conjugated to a marker enzyme, such as alkaline phosphatase (“AP”). The synthesis of this VCAM-IgG fusion is described in PCT publication WO 90/13300, the disclosure of which is herein incorporated by reference. The conjugation of that fusion to a marker enzyme can be achieved by cross-linking methods well-known in the art.
The VCAM-IgG enzyme conjugate is then placed in the wells of a multi-well filtration plate, such as that contained in the Millipore Multiscreen Assay System (Millipore Corp., Bedford, Mass.). Varying concentrations of the test inhibitory compound are then added to the wells followed by addition of VLA-4-expressing cells. The cells, compound and VCAM-IgG enzyme conjugate are mixed together and allowed to incubate at room temperature.
Following incubation, the wells are vacuum drained, leaving behind the cells and any bound VCAM. Quantitation of bound VCAM is determined by adding an appropriate calorimetric substrate for the enzyme conjugated to VCAM-IgG and determining the amount of reaction product. Decreased reaction product indicates increased binding inhibitory activity. The protocol is described more specifically below:
1. Block a 96 well Millipore Multiscreen Assay System filtration plate^1 with 200:l/well of blocking buffer (1×Phosphate Buffered Saline, 0.1%Tween 20, 1%BSA) for at least 1 hour at room temperature.
2. Drain the plate with the vacuum manifold, and wash with 200 μl/well of assay buffer (Tris Buffered Saline, 0.1% BSA, 2 mM glucose, 10 mM HEPES, pH 7.5) draining the plate in between. Repeat twice. Then blot the plate bottom on paper to remove excess buffer.
3. Prepare a 4 μg/ml VCAMIg-AP solution (Alkaline phosphatase coupled to VCAMIg) in assay buffer and filter with a 0.2:low protein binding syringe filter (Gelman Sciences #4454). From this stock, prepare a 0.4 μg/ml working solution of VCAMIg-AP in assay buffer. Add 25:l of 0.4 μg/ml VCAMIg-AP to every well.
5. Prepare dilutions of compounds to be tested in assay buffer. Concentrations should be 4× the desired final concentration and run in triplicate. Add 25 μl of the compound dilutions to designated wells.
7. Jurkat cells are centrifuged to remove cell culture media and washed once in assay buffer. Resuspend the washed Jurkat cells to a concentration of 8×10^6/ml in assay buffer containing 2 mM MnCl2. Pipeting the mixture up and down to ensure a uniform cell suspension. Add 50:l of cell suspension to each well except the NSB wells.
8. Gently tap the sides of the plate to mix well contents. Incubate the plate for 60 minutes at room temperature (RT).
9. Place the plate on the vacuum manifold to drain the well contents. Wash twice with 100 μl/well of wash buffer (assay buffer containing 1 mM MnCl2). Drain the plate and blot on paper towels.
10. Add 10 mg/ml of 4-Nitro phenyl phosphate to Substrate buffer (0.1M glycine, 1 mM ZnCl2, 1 mM MgCl2, pH 10.5). Add 100 μl/well and incubate for exactly 30 minutes at RT.
11. To stop the reaction, add 100 μl/well of 3N NaOH.
12. Read the 96-well plate in a Molecular Devices ELISA platereader at 405 nm. Analyze data with SoftMax software.

T1 sequence (P13612 34-1032): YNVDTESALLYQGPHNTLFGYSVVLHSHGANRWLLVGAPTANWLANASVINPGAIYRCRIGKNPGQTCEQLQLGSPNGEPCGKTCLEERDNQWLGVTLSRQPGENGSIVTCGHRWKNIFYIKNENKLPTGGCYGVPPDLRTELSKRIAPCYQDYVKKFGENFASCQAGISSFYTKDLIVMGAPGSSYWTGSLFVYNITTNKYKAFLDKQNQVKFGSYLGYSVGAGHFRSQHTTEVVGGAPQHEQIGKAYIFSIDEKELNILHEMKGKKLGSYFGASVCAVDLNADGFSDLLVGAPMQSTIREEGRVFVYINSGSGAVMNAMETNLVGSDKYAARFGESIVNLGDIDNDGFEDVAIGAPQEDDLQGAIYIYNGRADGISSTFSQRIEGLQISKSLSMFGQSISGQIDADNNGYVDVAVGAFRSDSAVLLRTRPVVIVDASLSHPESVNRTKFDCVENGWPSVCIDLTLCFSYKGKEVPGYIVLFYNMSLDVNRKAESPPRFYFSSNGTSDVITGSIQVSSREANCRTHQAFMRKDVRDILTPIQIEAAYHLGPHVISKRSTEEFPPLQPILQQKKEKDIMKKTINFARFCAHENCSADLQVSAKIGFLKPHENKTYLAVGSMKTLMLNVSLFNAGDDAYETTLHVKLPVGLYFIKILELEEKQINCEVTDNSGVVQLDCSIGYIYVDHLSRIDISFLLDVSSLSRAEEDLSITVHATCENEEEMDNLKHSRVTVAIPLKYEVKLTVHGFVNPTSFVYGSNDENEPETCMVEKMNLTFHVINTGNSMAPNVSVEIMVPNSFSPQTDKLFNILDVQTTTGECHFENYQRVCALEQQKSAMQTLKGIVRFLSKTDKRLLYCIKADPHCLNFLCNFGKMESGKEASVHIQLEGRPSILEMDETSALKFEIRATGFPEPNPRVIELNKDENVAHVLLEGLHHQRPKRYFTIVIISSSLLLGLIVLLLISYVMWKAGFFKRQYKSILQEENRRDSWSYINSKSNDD
T1 sequence (P05556 21-798): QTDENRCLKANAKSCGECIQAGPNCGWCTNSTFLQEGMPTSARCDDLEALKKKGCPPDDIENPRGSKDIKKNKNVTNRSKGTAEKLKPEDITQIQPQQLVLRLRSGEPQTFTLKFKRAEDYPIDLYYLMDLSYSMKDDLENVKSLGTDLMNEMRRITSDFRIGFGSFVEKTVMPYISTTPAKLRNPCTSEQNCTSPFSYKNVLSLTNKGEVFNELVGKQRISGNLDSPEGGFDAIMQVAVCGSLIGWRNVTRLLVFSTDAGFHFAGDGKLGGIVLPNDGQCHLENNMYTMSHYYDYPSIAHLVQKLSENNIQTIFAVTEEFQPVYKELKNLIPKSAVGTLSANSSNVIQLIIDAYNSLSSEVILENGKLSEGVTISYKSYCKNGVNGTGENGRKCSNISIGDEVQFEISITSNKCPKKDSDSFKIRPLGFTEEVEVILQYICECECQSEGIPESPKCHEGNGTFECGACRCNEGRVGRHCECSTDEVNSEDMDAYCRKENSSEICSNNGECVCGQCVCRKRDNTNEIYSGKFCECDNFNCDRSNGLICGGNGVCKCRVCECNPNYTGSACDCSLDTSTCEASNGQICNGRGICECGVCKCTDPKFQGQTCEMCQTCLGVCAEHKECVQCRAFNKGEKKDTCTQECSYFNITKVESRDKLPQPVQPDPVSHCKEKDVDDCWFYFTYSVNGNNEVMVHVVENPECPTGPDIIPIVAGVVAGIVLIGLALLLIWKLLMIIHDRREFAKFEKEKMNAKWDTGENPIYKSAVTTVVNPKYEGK

Going from COCC(C)N1C(=O)CN(CCC(=O)O)C(=O)c2cc(NC(=O)Cc3ccc(NC(=O)Nc4ccccc4C)cc3)ccc21 (centres unmarked) [BX54] to COC(=O)C(C(C)C)N1C(=O)CN(CCC(=O)O)C(=O)c2cc(NC(=O)Cc3ccc(NC(=O)Nc4ccccc4C)cc3)ccc21 (centres unmarked) [BX63], the IC50 falls from 128 nM to 75 nM (1.7-fold).

Cc1ccccc1NC(=O)Nc1ccc(CC(=O)Nc2ccc3c(c2)C(=O)N(CCC(=O)O)CC(=O)N3CC2CCCO2)cc1 (centres unmarked) [BX55] and COC(=O)CN1C(=O)CN(CCC(=O)O)C(=O)c2cc(NC(=O)Cc3ccc(NC(=O)Nc4ccccc4C)cc3)ccc21 [BX57] are within 1.5-fold of each other in IC50: 120 nM for the first, 113 nM for the second.

Cc1ccccc1NC(=O)Nc1ccc(CC(=O)Nc2ccc3c(c2)C(=O)N(CCC(=O)O)CC(=O)N3Cc2ccccc2)cc1 [BX58] and Cc1ccccc1NC(=O)Nc1ccc(CC(=O)Nc2ccc3c(c2)C(=O)N(C(CC(=O)O)C(=O)O)CC(=O)N3CCC(=O)O)cc1 (centres unmarked) [BX62] are within 1.5-fold of each other in IC50: 116 nM for the first, 95 nM for the second.

Going from CCC(CC(=O)O)N1CC(=O)N(C)c2ccc(NC(=O)Cc3ccc(NC(=O)Nc4ccccc4C)cc3)cc2C1=O (centres unmarked) [BX60] to Cc1ccccc1NC(=O)Nc1ccc(CC(=O)Nc2ccc3c(c2)C(=O)N(C(C)CC(=O)O)CC(=O)N3C)cc1 (centres unmarked) [BX67], the IC50 falls from 103 nM to 62.5 nM (1.6-fold).

First: COCCN1CC(=O)N(CCC(=O)O)Cc2cc(NC(=O)Cc3ccc(NC(=O)Nc4ccccc4C)cc3)ccc21 [BX61]
Second: COCCCN1CC(=O)N(CCC(=O)O)Cc2cc(NC(=O)Cc3ccc(NC(=O)Nc4ccccc4C)cc3)ccc21 [BX70]
The IC50 of the first is 3.3-fold higher: 99.3 nM for the first, 30.5 nM for the second. The second is the more potent here.

CN1C(=O)CN(CCC(=O)O)C(=O)c2cc(NC(=O)Cc3ccc(NC(=O)c4c[nH]c5ccccc45)cc3)ccc21 [BX64] and Cc1ccccc1NC(=O)Nc1ccc(CC(=O)Nc2ccc3c(c2)CN(CCC(=O)O)C(=O)CN3CCC(=O)O)cc1 [BX71] are within 1.5-fold of each other in IC50: 24 nM for the first, 28.5 nM for the second.

Compared with CN1Cc2ccc(NC(=O)Cc3ccc(NC(=O)Nc4ccccc4Br)cc3)cc2CN(CC(=O)O)C1=O [BX65], CCOC(=O)CCN1CC(=O)N(CCC(=O)O)Cc2cc(NC(=O)Cc3ccc(NC(=O)Nc4ccccc4C)cc3)ccc21 [BX72] is 5.2-fold lower in IC50: 65 nM for the first, 12.5 nM for the second.

COc1ccc(CCN2CC(=O)N(CCC(=O)O)Cc3cc(NC(=O)Cc4ccc(NC(=O)Nc5ccccc5C)cc4)ccc32)cc1OC [BX68] and Cc1ccccc1NC(=O)Nc1ccc(CC(=O)Nc2ccc3c(c2)CN(CCC(=O)O)C(=O)CN3CCN2CCOCC2)cc1 [BX69] are within 1.5-fold of each other in IC50: 35 nM for the first, 31.5 nM for the second.

First: Cc1ccccc1NC(=O)Nc1ccc(NC(=O)C2CCCN2C(=O)CCCCC(=O)O)cc1 (centres unmarked) [CX1]
Second: Cc1ccccc1NC(=O)Nc1ccc(NC(=O)[C@@H]2CCCN2C(=O)CCCC(=O)O)cc1 [CX8]
The IC50 of the first is 2.8-fold higher: 1350 nM for the first, 480 nM for the second. The second is the more potent here.

Compared with Cc1ccccc1NC(=O)Nc1ccc(NC(=O)[C@@H]2CCCN2C(=O)NCCCC(=O)O)cc1 [CX2], Cc1ccccc1NC(=O)Nc1ccc(NC(=O)[C@@H]2CCCN2C(=O)NCCC(=O)O)cc1 [CX7] is 47-fold lower in IC50: 8940 nM for the first, 190 nM for the second. The second is the more potent here.

Going from Cc1ccccc1NC(=O)Nc1ccc(NC(=O)[C@@H]2CCCN2C(=O)CC[C@@H](C)CC(=O)O)cc1 [CX9] to Cc1ccccc1NC(=O)Nc1ccc(NC(=O)[C@@H]2CCCN2C(=O)CC(C)CCC(=O)O)cc1 (some centres unmarked) [CX11], the IC50 falls from 332 nM to 144 nM (2.3-fold).

Going from Cc1ccccc1NC(=O)Nc1ccc(NC(=O)[C@@H]2CCCN2C(=O)CC(C)CC(=O)O)cc1 (some centres unmarked) [CX10] to Cc1ccccc1NC(=O)Nc1ccc(NC(=O)[C@@H]2CSCN2C(=O)CCCCC(=O)O)cc1 [CX12], the IC50 falls from 258 nM to 63.5 nM (4.1-fold).

Compared with Cc1ccccc1NC(=O)Nc1ccc(NC(=O)CN(CCC(C)C)C(=O)CCCCC(=O)O)cc1 [CX13], CC(=O)N(CCCC(=O)O)Cc1cccc(NC(=O)Cc2ccc(NC(=O)Nc3ccccc3C)cc2)c1 [RX20] is 4.8-fold higher in IC50: 52.5 nM for the first, 250 nM for the second.

O=C(O)CCNC(=O)[C@@H]1CCCN(C(=O)Cc2ccc(NC(=O)Nc3ccccc3)cc2)C1 [MX1] and Cc1ccccc1NC(=O)Nc1ccc(CC(=O)Nc2cccc(NCCC(=O)O)c2)cc1 [RX15] are within 1.5-fold of each other in IC50: 872 nM for the first, 650 nM for the second.

First: COc1ccc(CNC(=O)C2=C(C(=O)N[C@@H](CC(=O)O)c3ccc(OC)cc3)CCC2)cc1 [MX2]
Second: COc1ccc(C(CC(=O)O)NC(=O)C(CC(=O)NCc2ccccc2)CC(C)C)cc1 (centres unmarked) [SX6]
The IC50 of the first is 27-fold lower: 250 nM for the first, 6750 nM for the second.

Compared with Cc1ccccc1NC(=O)Nc1ccc(CC(=O)Nc2cccc(S(=O)(=O)NC(C)CC(=O)O)c2)cc1 (centres unmarked) [RX2], Cc1ccccc1NC(=O)Nc1ccc(CC(=O)Nc2cccc(S(=O)(=O)NCCC(=O)O)c2)cc1 [RX5] is 2.8-fold lower in IC50: 10600 nM for the first, 3810 nM for the second. The second is the more potent here.

First: Cc1ccccc1NC(=O)Nc1ccc(CC(=O)Nc2cccc(OCCCCC(=O)O)c2)cc1 [RX4]
Second: Cc1ccccc1NC(=O)Nc1ccc(CC(=O)Nc2cccc(OCCCC(=O)O)c2)cc1 [RX23]
The IC50 of the first is 31-fold higher: 4460 nM for the first, 144 nM for the second. The second is the more potent here.

First: Cc1ccccc1NC(=O)Nc1ccc(CC(=O)Nc2cccc(OCCC(C)C(=O)O)c2)cc1 (centres unmarked) [RX6]
Second: Cc1ccccc1NC(=O)Nc1ccc(CC(=O)Nc2cccc(OCCC(=O)O)c2)cc1 [RX19]
The IC50 of the first is 8.2-fold higher: 2590 nM for the first, 317 nM for the second. The second is the more potent here.

First: COc1ccc(NC(=O)Cc2ccc(NC(=O)Nc3ncccc3C)cc2)cc1OCCCC(=O)O [RX7]
Second: Cc1ccccc1NC(=O)Nc1ccc(CC(=O)Nc2ccc(C)c(OCCCC(=O)O)c2)cc1 [RX24]
The IC50 of the first is 2.7-fold higher: 2300 nM for the first, 855 nM for the second.

First: Cc1ccccc1NC(=O)Nc1ccc(CC(=O)Nc2cccc(CN(CCC(=O)O)C(=O)Cc3ccccc3)c2)cc1 [RX8]
Second: Cc1ccccc1NC(=O)Nc1ccc(CC(=O)Nc2cccc(CN(CCC(=O)O)C(=O)c3ccccc3)c2)cc1 [RX18]
The IC50 of the first is 6.4-fold higher: 2250 nM for the first, 350 nM for the second.

Going from Cc1ccccc1NC(=O)Nc1ccc(CC(=O)Nc2cc(OCCCC(=O)O)ccc2C(C)C)cc1 [RX10] to COc1cc(NC(=O)Cc2ccc(NC(=O)Nc3ccccc3C)cc2)cc(OCCCC(=O)O)c1 [RX26], the IC50 falls from 2040 nM to 77.7 nM (26-fold).

Compared with Cc1ccccc1NC(=O)Nc1ccc(CC(=O)NCc2cccc(OCC(=O)O)c2)cc1 [RX11], Cc1ccccc1NC(=O)Nc1ccc(CC(=O)NCc2cccc(OCCCC(=O)O)c2)cc1 [RX14] is 1.7-fold lower in IC50: 1140 nM for the first, 652 nM for the second.

Compared with Cc1ccccc1NC(=O)Nc1ccc(NC(=O)Nc2cccc(OCCCC(=O)O)c2)cc1 [RX13], Cc1ccccc1NC(=O)Nc1ccc(CC(=O)Nc2cccc(OC/C=C/C(=O)O)c2)cc1 [RX21] is 2.4-fold lower in IC50: 686 nM for the first, 285 nM for the second.

Going from Cc1ccccc1NC(=O)Nc1ccc(CC(=O)Nc2cc(OCCCC(=O)O)cc(OCCC(C)C)c2)cc1 [RX16] to CCOc1cc(NC(=O)Cc2ccc(NC(=O)Nc3ccccc3C)cc2)cc(OCCCC(=O)O)c1 [RX27], the IC50 falls from 574 nM to 50 nM (11-fold).

Going from Cc1ccccc1NC(=O)Nc1ccc(CC(=O)Nc2ccc(C(=O)O)c(OCCCC(=O)O)c2)cc1 [RX17] to COC(=O)CCCOc1cc(NC(=O)Cc2ccc(NC(=O)Nc3ccccc3C)cc2)cc(OCCCC(=O)O)c1 [RX22], the IC50 falls from 406 nM to 157 nM (2.6-fold).

Going from COc1ccc([C@H](CC(=O)O)NC(=O)C(CC(=O)Nc2ccc(NC(=O)c3ccccc3)cc2)CC(C)C)cc1OC (some centres unmarked) [SX3] to COc1ccc([C@H](CC(=O)O)NC(=O)C(CC(=O)Nc2ccc(CCCc3ccccc3)cc2)CC(C)C)cc1OC (some centres unmarked) [SX14], the IC50 rises from 165 nM to 8240 nM (50-fold). The first is the more potent here.

First: Cc1ccccc1NC(=O)Nc1ccc(NC(=O)CC(CC(C)C)C(=O)N[C@@H](CC(=O)O)CN2CCOCC2)cc1 (some centres unmarked) [SX7]
Second: COc1ccc(C(CC(=O)O)NC(=O)C(CC(=O)Nc2ccc(NC(=O)Nc3ccccc3C)cc2)CC(C)C)cc1 (centres unmarked) [SX13]
The IC50 of the first is 1.7-fold higher: 5980 nM for the first, 3490 nM for the second.

Going from COc1ccc([C@H](CC(=O)O)NC(=O)C(C)CC(=O)Nc2ccc(NC(=O)Nc3ccccc3C)cc2)cc1OC (some centres unmarked) [SX9] to COc1ccc([C@H](CC(=O)O)NC(=O)C(N)CC(=O)Nc2ccc(NC(=O)Nc3ccccc3C)cc2)cc1OC (some centres unmarked) [SX19], the IC50 falls from 5120 nM to 1940 nM (2.6-fold).

Going from COc1ccc([C@H](CC(=O)O)NC(=O)C(CC(=O)Nc2ccc(C(N)=O)cc2)CC(C)C)cc1OC (some centres unmarked) [SX15] to COc1ccc(C(CC(=O)O)NC(=O)C(CC(=O)Nc2ccc(NC(=O)Nc3ccccc3)cc2)CC(C)C)cc1 (centres unmarked) [SX23], the IC50 falls from 3000 nM to 1330 nM (2.3-fold).

same assay, conditions: qualitative statement

With Cc1ccccc1NC(=O)Nc1ccc(NC(=O)CN(C)C(=O)CN(CCC(=O)O)C(=O)c2ccccc2)cc1 [Compound A] the VLA-4 inhibitory activity was “having VLA-4 inhibitory activity”.
